The values below come from US11358939B2, “1,4-benzodiazepin-2-one derivatives and use thereof” (priority 2017, dated 2022).

Series [1] deals with central benzodiazepine receptors (CBR). Nature of the series: Affinity to central benzodiazepine receptors, competitive displacement of [3H]-flumazenil (radioreceptor method). It is filed as binding. Conditions: 1×10^−6 mol/L. How it is done:
Affinity of the compounds to central benzodiazepine receptors (CBR) was studied using radioreceptor method of competitive displacement of radioligant [^3H]-flumazenil (Ro 15-1788) from its specific binding sites at the receptor. Ligand displacement were performed in 1×10^−6 mol/L concentration.
(§1) Data on the affinity of 3-alcoxy-1,3-dihydro-2H-benzo[e][1,4]diazepin-2-ones (Ia) to central and peripheral benzodiazepine receptors is presented in Table 3.

In series [2] the target is peripheral benzodiazepine receptors (PBR) (Homo sapiens, UniProt P30536). Nature of the series: Affinity to peripheral benzodiazepine receptors. The series is classed as binding. Conditions: 1×10^−6 mol/L.
Description: as §1

The subject of series [3] is writhes induced by intraperitoneal acetic acid. Nature of the series: Analgesic activity, acetic acid-induced writhing test (peripheral pain model). The series is classed as in vivo. Conditions: for Writhing inhibition, % of control in 1 mg/kg dose: compounds Ia, 1 mg/kg intraperitoneally, 40 min before 0.75% acetic acid. How it is done:
Assessment of analgesic activity was performed in a model of peripheral pain based on chemical pain induced by intraperitoneal administration of acetic acid, leading to involuntary contractions of abdominal muscles, termed “writhes”, accompanied by hind leg extension and spine arching. The writhes were induced by 0.75% solution of acetic acid, which was administered intraperitoneally 40 min after intraperitoneal administration of test compounds in 0.001-5 mg/kg dose range. […] Analgesic activity was assessed by the ability of the compounds to reduce the number of writhes in test group compared to control group, and indicated as percentage using the following formula: AA=(Wc−Wt/Wc)×100%,
where AA—analgesic activity in %;
Wc—average number of writhes in control group;
Wt—average number of writhes in test group
Test compounds were studied in comparison with the reference drug sodium diclofenac in 10 mg/kg dose. ED50 was calculated using Prozorovsky method.
On the technique in general: An intraperitoneal irritant provokes the stretching counted in writhing tests.

In another series the test system is immobility time of mice. Nature of the series: Antidepressant activity, Porsolt forced swimming test. The series is classed as in vivo. How it is done:
(§2) Studies of pharmacological activity of 3-arylamino-1,3-dihydro-2H-benzo[e][1,4]diazepin-2-ones, namely, their action of appetite, assessment of antihypoxic and antidepressant activity was performed in white male rats with body mass 150-180 g and male mice with body mass 18-22 g. The animals were kept on a standard laboratory diet and natural lighting. Animals of control group were given a water-Tween suspension. Test compounds were administered in a suspension with Tween-80 Reference drugs were the hormone leptin, in 0.0002 mg/kg dose, and a well-known antidepressant amitriptyline (solution for injections in 1 ml vials. Test compounds and the water-Tween suspension were administered in a dose of 0.2 ml/100 g of rat body mass.
Antidepressant activity was studied using «Porsolt forced swimming test» [15], which models stress in mice by forcing them to swim in a narrow translucent cylinder, filled by ⅓ volume with water at 23-25° C. temperature. Antidepressant action is assessed by the reduction in immobility time, when the animals have minimal amount of paddling, in seconds or percentage compared to control. The animal behavior was registered for 4 minutes after acclimatization for 2 minutes.

Series [4] relates to food consumption by rats. Nature of the series: Action on appetite, Anorexia method (liquid food consumption). It is filed as in vivo. As to conditions: for Amount of consumed liquid food during 30 min in ml / Food consumption, % of control: dose 0,1 mg/kg intraperitoneally. The procedure: as §2
The action of the compounds on rat appetite was studied using «norexia» method. For 2 weeks in an experimental equipment the rats were conditioned to consume liquid food. Then a water-Tween suspension of test articles was administered intraperitoneally to conditioned animals one day before the experiment. After 40 minutes the animals were allowed access to liquid food and the amount of consumed food (in ml) of every rat was registered every 30 minutes for 3 hours. The next day after 2 hours of deprivation the rats in control group were administered a water-Tween suspension intraperitoneally, while the test group was administered the test articles. After 40 minutes the animals were allowed access to liquid food and the amount of consumed food (in ml) of every rat was registered every 30 minutes for 3 hours. Then all food consumption values for each rat were summed and compared to control values. The control group has consumed on average 7 ml of liquid food per 30 minutes. The effect was calculated in percentage compared to control.

The subject of series [5] is mice in acute confined space hypoxia. Nature of the series: Antihypoxic activity, acute confined space hypoxia (CSH). The series is classed as in vivo. As to conditions: 10 mg/kg. How it is done: as §2
Screening of antihypoxic activity was performed using the model of acute confined space hypoxia (CSH). CSH was modeled by placing mice into isolated sealed chambers (V=200 ml). Each group included 10 animals. The observation lasted until the death of the animals. Antihypoxic effect was assessed by the survival duration (in min) compared to control, which was taken as 100%, and according to the calculation of antihypoxic protection ratio (Rpr):Rpr=Tt/Tc, where Tt—average animal survival time in the test group; Tc—average animal survival time in the control group.

The test system of series [6] is writhes induced by intraperitoneal acetic acid. Conditions: prior art section; cited from earlier work.
For series [7], the system named is food consumption by rats. Nature of the series: Action on appetite, Anorexia method (liquid food consumption). It is filed as in vivo. Conditions: leptin dose 20 nM.
Series [8] relates to mice in acute confined space hypoxia. As to conditions: reference drug, ref. [14]; cited from earlier work.

peripheral benzodiazepine receptors (PBR), sequence (P30536 whole entry, species assumed): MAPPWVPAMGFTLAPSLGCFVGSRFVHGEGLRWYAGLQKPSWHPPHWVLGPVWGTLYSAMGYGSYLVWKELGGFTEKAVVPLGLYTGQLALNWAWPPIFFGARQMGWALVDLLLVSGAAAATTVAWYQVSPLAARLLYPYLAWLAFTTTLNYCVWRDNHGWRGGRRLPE

Consider `O=C1Nc2ccc([N+](=O)[O-])cc2C(c2ccccc2)=NC1Nc1ccccc1[N+](=O)[O-]` (stereo not shown), for which the melting point (in general, the temperature, or range, at which the solid turns liquid) lay in the range of 225 to 227 °C.
Turning to `O=C1Nc2ccc(OC(F)(F)F)cc2C(c2ccccc2)=NC1OCCO` (stereo not shown) [Compound 30], the “Affinity CBR, %” value in [1] is 65%. Moreover, the “Affinity PBR, %” value in series [2] was 16%. Besides, the “Writhing inhibition, % of control in 1 mg/kg dose” value in series [3] worked out at 50%.
`CCCOC1N=C(c2ccccc2)c2cc([N+](=O)[O-])ccc2N(CC(=O)OC)C1=O` (stereo not shown) [Compound 48, Methyl-2-(7-nitro-2-oxo-5-phenyl-3-propoxy-2,3-dihydro-1H-benzo[e][1,4]di-azepin-1-yl)acetate]: the melting point fell in the range of 214 to 215 °C. Moreover, in series [3], the “Writhing inhibition, % of control in 1 mg/kg dose” value is given as 85%. Also, the median effective dose (ED50) (commonly the dose that gives a 50% effect, or the effect in half of the subjects) in [3] (ip, intraperitoneal, Prozorovsky method) was found to be 0.058 ± 0.015 mg/kg.
For `COC(=O)CN1C(=O)C(Nc2cccc(F)c2)N=C(c2ccccc2)c2cc(Cl)ccc21` (stereo not shown) [Compound 159], the “Reduction of immobility time compared to control” value (“Reduction of immobility time” below) in the series on immobility time of mice (1 mg/kg) is listed as 32%.
Turning to `O=C1Nc2ccc(OC(F)(F)F)cc2C(c2ccccc2)=NC1Nc1ccccc1Cl` (stereo not shown) [Compound 194], the “Reduction in appetite and food consumption compared to control” value in the series with food consumption by rats [4] (Table 6 dose 0,1 mg/kg) is reported as 47%. Moreover, in the series on food consumption by rats [4], the “Amount of consumed liquid food during 30 min in ml” value (shortened to “Amount”) is given as 3,5 ± 2,3 ml and the “Food consumption, % of control” value stood at 47%. Besides, the “Reduction of immobility time” value in the series with immobility time of mice (1 mg/kg) is listed as 40%.
As to `O=C1Nc2ccc([N+](=O)[O-])cc2C(c2ccccc2)=NC1Nc1ccc(Cl)cc1` (stereo not shown) [Compound 250], in the series on food consumption by rats [4], the “Amount” value is 6,3 ± 3,2 ml and the “Food consumption, % of control” value was determined as 85%. Further, in [5], the “Increase of mice survival time during acute confined space hypoxia compared to control” value turned out to be 70%.
For `O=C1Nc2ccc([N+](=O)[O-])cc2C(c2ccccc2F)=NC1Nc1cccc(Cl)c1` (stereo not shown) [Compound 357], in the series on food consumption by rats [4], the “Amount” value is reported as 5,9 ± 2,2 ml and the “Food consumption, % of control” value turned out to be 80%. For the same molecule, the “Increase of mice survival time during acute confined space hypoxia compared to control” value in series [5] turned out to be 40.5%.
On to `CN(C)CCC=C1c2ccccc2CCc2ccccc21` [amitriptyline, reference compound], for which the “Reduction of immobility time” value in the series with immobility time of mice (1 mg/kg) was 40%.
`CCOC1N=C(c2ccccc2)c2cc(Br)ccc2N(CC(=O)OC)C1=O` (stereo not shown) [methyl-2-(7-bromo-3-etoxy-2-oxo-5-phenyl-2,3-dihydro-1H-benzo[e][1,4]diazepin-1-yl) acetate]: in [6], the “ED50, analgesic activity in acetic acid-induced writhing test (prior art)” value was 0.47 ± 0.15 mg/kg.
Take leptin: the “Reduction in appetite and food consumption compared to control” value in the series with food consumption by rats [4] (leptin 0.0002 mg/kg) is 63%. Moreover, in the series on immobility time of mice (0.0002 mg/kg), the “Reduction of immobility time” value turned out to be 14%. Moreover, in the series on food consumption by rats [7], the “Amount” value is 2,5 ± 0,2 ml and the “Food consumption, % of control” value is reported as 37%. The “Antihypoxic properties” value in series [8] was “no antihypoxic properties”.
